According to patent US12090225B2 (Avalyn Pharma Inc., priority 2018, dated 2024):
Read-outs that look alike come from different tables or passages of the source. Marks after values point to notes of the source that are not given here.

Assays:
[1] = Dynamic Vapour Sorption (DVS) hygroscopicity; type: physicochemical; conditions: for DVS mass uptake at 90% RH: 25° C., uptake from input material; for Hygroscopicity: DVS
Experimental: Dynamic Vapour Sorption (DVS). Approximately, 10 mg of sample was placed into a mesh vapour sorption balance pan and loaded into a DVS-1 or DVS Advantage dynamic vapour sorption balance by Surface Measurement Systems. The sample was subjected to a ramping profile from 40-90% relative humidity (RH) at 10% increments, maintaining the sample at each step until a stable weight had been achieved (dm/dt 0.004%, minimum step length 30 minutes, maximum step length 500 minutes) at 25° C. After completion of the sorption cycle, the sample was dried using the same procedure to 0% RH and then a second sorption cycle back to 40% RH. Two cycles were performed. The weight change during the sorption/desorption cycles were plotted, allowing for the hygroscopic nature of the sample to be determined. XRPD analysis was then carried out on any solid retained.

[2] = Pattern stability screen of potential salts (40° C./75% RH, XRPD); type: physicochemical
[3] = Therapeutic silica model: dose levels and lung pharmacokinetic comparison; type: in vivo, C57BL/6 mice; conditions: Oral Gavage (PO) 30.0 mg/kg; mice
Experimental: Briefly, acclimated 20-22 g female C57BL/6 mice were administered silica on day 1 by the intratracheal route. On the tenth day, treatment was initiated with either saline or nintedanib. […] Sham and silica control groups received saline either IN or PO. Five animals were enrolled into sham groups, 10 animals enrolled into each PO dose groups, and 13 animals were enrolled into each IN dosing group. […] All animals were euthanized on day 30d. Body weights were collected throughout the study, with lung weights at termination. Flexivent was performed to determine elastance (lung function; Table 59). Left lungs were extracted, stained as assessed for parenchymal collagen (Table 60) and α-smooth muscle actin (αSMA; Table 61), while right lungs were assessed for interleukin-1β (IL-1β; Table 62).
Intranasal (IN) dose levels were selected by comparing lung pharmacokinetics following IN dosing to lung pharmacokinetics determined following 30 mg/kg oral gavage (PO).

[4] = Therapeutic bleomycin model: dose levels and lung pharmacokinetic comparison; type: in vivo, Sprague Dawley rats; conditions: rat
[5] = Formulation development/optimization and long-term stability of nintedanib HBr and HCl formulations
[6] = system: silica pulmonary fibrosis; test: Therapeutic silica pulmonary fibrosis model: lung function (elastance, Flexivent); type: in vivo, C57BL/6 mice; conditions: silica mice
Experimental: Sham and silica control groups received saline either IN or PO. Five animals were enrolled into sham groups, 10 animals enrolled into each PO dose groups, and 13 animals were enrolled into each IN dosing group. […] Body weights were collected throughout the study, with lung weights at termination. Flexivent was performed to determine elastance (lung function; Table 59). […] The ventilator determined the elastance of each lung as a measure of lung stiffness/fibrosis by inflating the lungs and assessing changes in flow and pressure.

[7] = system: bleomycin pulmonary fibrosis; test: Therapeutic bleomycin pulmonary fibrosis model: Ashcroft fibrosis score, hydroxyproline; type: in vivo, Sprague Dawley rats
Experimental: Briefly, acclimated Sprague Dawley male rats (c.a. 253 grams at first dosing) were administered bleomycin on days 1, 2, 3 and 6 by the oropharyngeal (OP) route. On the eighth day, treatment was initiated with either saline or nintedanib. […] Ten animals were enrolled into each dosing group. […] All animals were euthanized on day 28d. Body weights were collected throughout the study, with lung weights at termination (Table 55). Left lungs were extracted and measured for hydroxyproline content, while […] were subjected to histology for Ashcroft fibrosis score determination (Table 56).

interleukin-1β (IL-1β) = test: Therapeutic silica model: lung interleukin-1β; type: in vivo, C57BL/6 mice; conditions: silica mice
Experimental: (§1) Briefly, acclimated 20-22 g female C57BL/6 mice were administered silica on day 1 by the intratracheal route. On the tenth day, treatment was initiated with either saline or nintedanib. […] Sham and silica control groups received saline either IN or PO. Five animals were enrolled into sham groups, 10 animals enrolled into each PO dose groups, and 13 animals were enrolled into each IN dosing group. […] Body weights were collected throughout the study, with lung weights at termination. Flexivent was performed to determine elastance (lung function; Table 59). Left lungs were extracted, stained as assessed for parenchymal collagen (Table 60) and α-smooth muscle actin (αSMA; Table 61), while right lungs were assessed for interleukin-1β (IL-1β; Table 62). Alpha-smooth muscle actin (αSMA) is a marker of myofibroblast, a key cell type present in fibrotic diseases, including IPF, and is required for production and deposition of collagen.

[8] = system: α-smooth muscle actin (αSMA); test: Therapeutic silica model: lung α-smooth muscle actin; type: in vivo, C57BL/6 mice; conditions: silica mice
Experimental: as §1

[9] = Therapeutic bleomycin model: body weight gain, lung weight-to-body weight ratio, tolerability; conditions: bleomycin rats
parenchymal collagen = test: Therapeutic silica model: parenchymal collagen (Picrosirius Red); type: in vivo, C57BL/6 mice; conditions: silica mice
Experimental: Briefly, acclimated 20-22 g female C57BL/6 mice were administered silica on day 1 by the intratracheal route. On the tenth day, treatment was initiated with either saline or nintedanib. […] Sham and silica control groups received saline either IN or PO. Five animals were enrolled into sham groups, 10 animals enrolled into each PO dose groups, and 13 animals were enrolled into each IN dosing group. […] Body weights were collected throughout the study, with lung weights at termination. Flexivent was performed to determine elastance (lung function; Table 59). Left lungs were extracted, stained as assessed for parenchymal collagen (Table 60) and α-smooth muscle actin (αSMA; Table 61), while right lungs were assessed for interleukin-1β (IL-1β; Table 62). […] collagen was measured by Picrosirius Red (PSR) histopathological analysis. […] Due to the positive impact on other key fibrosis modulators (αSMA, IL-1β; Tables 61 and 62) and that silica-induced fibrosis was well-established prior to start of dosing, it is possible that extending the treatment time would ultimately impact parenchymal collagen.

[10] = 0.5 mg/mL solubility assessment (filtered/unfiltered); type: physicochemical; conditions: 0.5 mg/mL experiment; for pH: listed as HBr
[11] = Allometric dose scaling from mouse and rat to human; conditions: for Predicted human half-life: Oral
[12] = OP 0.05 mg/kg QD, bleomycin rats
[13] = OP 0.25 mg/kg QD, bleomycin rats
[14] = OP 0.375 mg/kg QD, bleomycin rats
[15] = Oral Gavage (PO) 30 mg/kg BID, lung
[16] = oral nintedanib HBr 30 mg/kg BID

Compound: COC(=O)c1ccc2c(c1)NC(=O)/C2=C(\Nc1ccc(N(C)C(=O)CN2CCN(C)CC2)cc1)c1ccccc1 [Nintedanib HBr]
- DVS mass uptake at 90% RH ([1]; listed as HBr salt): ca. 4.5%
- Hygroscopicity ([1]; listed as HBr): Hygroscopic
- Post-DVS XRPD pattern ([1]; listed as HBr salt): remain unchanged
- XRPD pattern after 72 hrs 40° C./75% RH ([2]; Initial pattern 3, listed as HBr): 3
- XRPD pattern after 72 hrs 40° C./75% RH ([2]; Initial pattern 4): 4
- XRPD pattern after 72 hrs 40° C./75% RH ([2]; Initial pattern 5): 5
- Lung AUC [3]: 7.4 mg·h/kg
- Lung Cmax [3]: 1.1 µg/g
- Lung AUC ([4]; Oropharyngeal (OP) 0.05 mg/kg): 1.6 mg·h/kg
- Lung Cmax ([4]; Oropharyngeal (OP) 0.05 mg/kg): 1.4 µg/g
- Lung AUC ([4]; Oropharyngeal (OP) 0.25 mg/kg): 7.8 mg·h/kg
- Lung Cmax ([4]; Oropharyngeal (OP) 0.25 mg/kg): 7.0 µg/g
- Lung AUC ([4]; Oropharyngeal (OP) 0.375 mg/kg): 11.6 mg·h/kg
- Lung Cmax ([4]; Oropharyngeal (OP) 0.375 mg/kg): 10.5 µg/g
- compatibility with citric acid, fumaric acid [5]: incompatible
- upper concentration limit (no re-crystallization) [5]: 1.38 mg/mL
- Elastance, Delta to Vehicle (%) ([6]; Oral Gavage (PO) 30 mg/kg BID): −122.2%
- Elastance, Sham Subtracted ([6]; Oral Gavage (PO) 30 mg/kg BID): −0.2
- Fibrosis Score (SD) (Ashcroft) [7, 12]: 2.7 (0.94)
- Fibrosis Score, Delta to Vehicle (%) [7, 12]: −12.5%
- Fibrosis Score (SD) (Ashcroft) [7, 13]: 2.1 (0.97)
- Fibrosis Score, Delta to Vehicle (%) [7, 13]: 12.5%
- Fibrosis Score (SD) (Ashcroft) [7, 14]: 1.9 (0.48)
- Fibrosis Score, Delta to Vehicle (%) [7, 14]: 20.8%
- IL-1β, Delta to Vehicle (%) (interleukin-1β (IL-1β); Oral Gavage (PO) 30 mg/kg BID): −1.5%
- IL-1β (interleukin-1β (IL-1β); [15]): 1001.0 pg/mL
- αSMA (%) [8, 15]: 22.8%
- αSMA, Delta to Vehicle (%) ([8]; Oral Gavage (PO) 30 mg/kg BID, p < 0.005): −47.7^b %
- Body Weight Gain, Delta to Sham (%) ([9]; OP 0.05 mg/kg QD): −18.4%
- Body Weight Gain, Delta to Sham (%) ([9]; OP 0.25 mg/kg QD): −26.7%
- Body Weight Gain, Delta to Sham (%) ([9]; OP 0.375 mg/kg QD): −4.8%
- Parenchymal Collagen, Delta to Vehicle (%) (parenchymal collagen; Oral Gavage (PO) 30 mg/kg BID): 15.6%
- Parenchymal Collagen (parenchymal collagen; Oral Gavage (PO) 30 mg/kg BID, Picrosirius Red): 0.74
- concentration for filtered sample compared to unfiltered ([10]; listed as HBr salt): 94%
- pH ([10]; Filtered): 5.31
- pH ([10]; Unfiltered): 5.12

Compound: COC(=O)c1ccc2c(c1)NC(=O)/C2=C(\Nc1ccc(N(C)C(=O)CN2CCN(C)CC2)cc1)c1ccccc1 [Nintedanib, methyl (3Z)-3-[[4-[methyl-[2-(4-methylpiperazin-1-yl)acetyl]amino]anilino]-phenylmethylidene]-2-oxo-1H-indole-6-carboxylate]
- Post-DVS XRPD pattern [1]: remain Pattern 1
- DVS mass uptake at 90% RH [1]: ca. 1.7%
- Hygroscopicity [1]: slightly hygroscopic
- lung function (elastance) [6, 16]: Oral was also significant in improving lung function
- Predicted human half-life ([11]; line of Mouse Oral 30.0 mg/kg): 13.6 h
- Predicted human half-life ([11]; line of Rat Oral 60.0 mg/kg): 13.6 h
- Predicted human ELF half-life (alpha) ([11]; from Mouse Inhaled […], 21-fold longer than animal lung half-life): 84^c min
- Predicted human ELF half-life (alpha) ([11]; from Mouse Inhaled […], ELF half-life 21-fold longer than animal lung half-life): 84^c min
- Predicted human ELF half-life (alpha) ([11]; from Rat Inhaled 0.05 mg/kg, 21-fold longer than animal lung half-life): 294^c min
- Predicted human ELF half-life (alpha) ([11]; from Rat Inhaled 0.25 mg/kg, 21-fold longer than animal lung half-life): 294^c min
- Predicted human ELF half-life (alpha) ([11]; from Rat Inhaled 0.375 mg/kg, 21-fold longer than animal lung half-life): 294^c min
- lung fibrosis score (Ashcroft) ([7]; Inhaled (OP) nintedanib HBr dose groups, bleomycin rats): dose responsive reduction in fibrosis score
- anti-fibrotic activity compared with oral 60 mg/kg BID ([7]; inhaled high dose (0.375 mg/kg OP QD)): more anti-fibrotic activity as oral
- anti-fibrotic activity compared with oral 60 mg/kg BID ([7]; inhaled low dose (0.05 mg/kg OP QD)): less anti-fibrotic activity than oral
- anti-fibrotic activity compared with oral 60 mg/kg BID ([7]; inhaled mid-dose (0.25 mg/kg OP QD)): equivalent amount of anti-fibrotic activity as oral
- lung IL-1β (interleukin-1β (IL-1β); Inhaled (IN) nintedanib HBr dose groups): dose responsive reduction, with the high dose achieving significance
- lung IL-1β (interleukin-1β (IL-1β); [16]): did not reduce IL-1β levels
- lung αSMA levels ([8]; oral and inhaled (IN) nintedanib HBr): both oral and inhaled routes have a substantial impact reducing αSMA lung levels, with the inhaled low and oral doses showing significance
- body weight gain ([9]; High dose OP (0.375 mg/kg nintedanib HBr QD)): weight gain equivalent to sham animals
- body weight gain ([9]; Oral (PO) 60 mg/kg nintedanib esylate BID): gained about half the weight of control animals
- parenchymal collagen (PSR) (parenchymal collagen; inhalation (IN) or oral nintedanib HBr): not reversed by either inhalation or oral nintedanib treatment
